Here are results for 33 compounds from ChEMBL document CHEMBL6182838, “Structure-activity relationship expansion and microsomal stability assessment of the 2-morpholinobenzoic acid scaffold as antiproliferative phosphatidylcholine-specific phospholipase C inhibitors” (RSC Med Chem, 2025).

Data set [1] concerns MDA-MB-231. Description: Antiproliferative activity against human MDA-MB-231 cells assessed as cell proliferation at 10 uM measured after 3 days incubation followed by incubated 5 hrs with [3H]-thymidine by 3H-thymidine incorporation assay relative to control. The class given is functional. Particulars: MDA-MB-231, 72 h, time 3 day, read-out: Activity. (Incorporation of labelled thymidine or its analogues reports DNA synthesis.)

Data set [2] relates to HCT-116. Description: Antiproliferative activity against human HCT-116 cells assessed as cell proliferation at 10 uM measured after 3 days incubation followed by incubated 5 hrs with [3H]-thymidine by 3H-thymidine incorporation assay relative to control. The format is functional. Particulars: HCT-116, 72 h, time 3 day, read-out: Activity.
The test system of data set [3] is MDA-MB-231. As to the kind of experiment: Antiproliferative activity against human MDA-MB-231 cells assessed as cell proliferation measured after 3 days incubation followed by incubated 5 hrs with [3H]-thymidine by 3H-thymidine incorporation assay. The class given is functional, cell-based.
Data set [4] concerns HCT-116. Description: Antiproliferative activity against human HCT-116 cells assessed as cell proliferation measured after 3 days incubation followed by incubated 5 hrs with [3H]-thymidine by 3H-thymidine incorporation assay. The format is functional, cell-based.
The test system of data set [5] is Bacillus cereus. As to the kind of experiment: Inhibition of Bacillus cereus phosphatidylcholine specific phospholipase C (PC-PLC BC) assessed as enzyme activity by measuring formation of resorufin fluorophore 10 uM by Amplex-Red based fluorescence assay relative to control. Set-up: scale not given: the % may be the effect or the level left.
The nature of data set [6]: Metabolic stability in Sprague-Dawley rat microsomes assessed as degradation in presence of NADPH at 10 uM measured after 1 hr by HPLC analysis. The format is ADME, Microsome.
Data set [7] can be described thus: Metabolic stability in Sprague-Dawley rat microsomes assessed as degradation in presence of NADPH at 10 uM measured up to 60 mins by HPLC analysis. The format is ADME, Microsome.
Data set [8] is described as follows: Metabolic stability in Sprague-Dawley rat microsomes assessed as degradation in absence of NADPH at 10 uM measured up to 60 mins by HPLC analysis. The class given is ADME, Microsome.

As usually defined, the IC50 is the concentration at which inhibition is half-maximal.

SMILES strings stand for the structures.

For the compound `CN(Cc1ccccc1Cl)c1ccc(N2CCOCC2)c(C(=O)NO)c1`, the growth at 10 µM worked out at 4.3% in data set [1] and 4.8% in data set [2]. In addition, the figures for the 50% inhibitory concentration (IC50) in data set [3] and in data set [4] were 1.1 µM and 3.4 µM, respectively.
Taken in the same sequence, the figures for `O=C(NO)c1cc(NCc2ccccc2Cl)ccc1N1CCOCC1` were 11.7%, 2%, 2.9 µM and 4.9 µM.
Consider `O=C(O)c1ccc(NCc2ccccc2Cl)cc1N1CCOCC1`, for which the Activity in data set [5] was found to be 50.8%. In addition, the growth at 10 µM in data set [1] stood at 88%; in data set [2], 87.6%. Moreover, the Stability entry in data set [6] is reported as “Stable”.
On to `O=C(O)c1cc(NCc2ccccc2Cl)ccc1N1CCOCC1`, for which the metabolised at 1 h, 10 µM in data set [7] (Sprague-Dawley, rat microsomes, read-out: Drug degradation) came out at 17%.
As to `CN(Cc1ccccc1Cl)c1ccc(N2CCOCC2)c(C(=O)O)c1`, the figures for the growth at 10 µM in data set [1] and in data set [2] were 95.5% and 87.8%, respectively. Further, the % remaining at 1 h, 10 µM in data set [8] (Sprague-Dawley, rat microsomes) was found to be 94%.
In the case of `O=C(NO)c1cc(NCc2cccc(Br)c2)ccc1N1CCOCC1`, the growth at 10 µM in data set [2] amounted to 1.9%. Besides, the concentration for half-maximal inhibition (IC50) in data set [3] is 3.3 µM; in data set [4] it was 5.8 µM.
Take `COC(=O)c1cc(NCc2ccc(OC)cc2)ccc1C1CCOCC1`: the Activity in data set [5] is 75.4%. The growth at 10 µM in data set [1] amounted to 71.2%; in data set [2], 54.5%.
Taken in the same sequence, the figures for `COC(=O)c1ccc(NCc2ccccc2Cl)cc1N1CCOCC1` were 75.9%, 70.4% and 43.2%.
For `COC(=O)c1ccc(NCc2ccccc2OC)cc1N1CCOCC1`, the Activity in data set [5] worked out at 104%. Also, the values for the growth at 10 µM in data set [1] and in data set [2] were 73.6% and 55.5%, respectively.
For `O=C(O)c1cc(NCc2ccccc2Cl)ccc1C1CCOCC1`, the Activity in data set [5] was determined as 107%. The growth at 10 µM in data set [1] stood at 111%; in data set [2], 101%. Also, in data set [6], the Stability entry is recorded as “Stable”.
Consider `O=C(NO)c1ccc(NCc2cccc(Br)c2)cc1N1CCOCC1`, for which the Activity in data set [5] was found to be 45.3%. The growth at 10 µM in data set [1] is 25.3%; in data set [2] it was 32.3%.
Taken in the same sequence, the figures for `O=C(NO)c1ccc(NCc2ccc(F)cc2)cc1N1CCOCC1` were 49.2%, 81.6% and 91.4%.
With `COC(=O)c1ccc(NCc2ccc(Cl)cc2)cc1N1CCOCC1`, the Activity in data set [5] was found to be 41.3%. The growth at 10 µM was 70.3% in data set [1] and 43.8% in data set [2].
Taken in the same sequence, the figures for `O=C(O)c1cc(NCc2ccc(Cl)cc2)ccc1C1CCOCC1` were 112%, 115% and 101%.
Turning to `O=C(NO)c1cc(NCc2ccccc2F)ccc1C1CCOCC1`, the Activity in data set [5] is 94%. For the same compound, the values for the growth at 10 µM in data set [1] and in data set [2] were 88% and 98.6%, respectively.
On the same counts, the results for `COc1ccccc1CNc1ccc(C2CCOCC2)c(C(=O)O)c1` are 108%, 100% and 106%.
On the same counts, the results for `COc1ccccc1CNc1ccc(C2CCOCC2)c(C(=O)NO)c1` are 80.7%, 80.7% and 93.3%.
Taken in the same sequence, the figures for `O=C(O)c1ccc(NCc2cccc(F)c2)cc1N1CCOCC1` were 84.9%, 92.4% and 93.3%.
Take `O=C(NO)c1cc(NCc2ccccc2Cl)ccc1C1CCOCC1`: the Activity in data set [5] was 82.8%. Further, the figures for the growth at 10 µM in data set [1] and in data set [2] were 86.8% and 86.7%, respectively.
In the case of `COc1ccccc1CNc1ccc(C(=O)NO)c(N2CCOCC2)c1`, in data set [5], the Activity was 46.9%. For the same compound, the growth at 10 µM in data set [1] was found to be 70.7%; in data set [2] it was 83.2%.
On the same counts, the results for `COC(=O)c1ccc(NCc2ccccc2F)cc1N1CCOCC1` are 105%, 92.8% and 67.4%.
On the same counts, the results for `O=C(NO)c1ccc(NCc2cccc(F)c2)cc1N1CCOCC1` are 49.1%, 76.2% and 84.3%.
For the compound `COC(=O)c1cc(NCc2cccc(F)c2)ccc1C1CCOCC1`, the Activity in data set [5] worked out at 44.5%. In addition, the growth at 10 µM amounted to 41.3% in data set [1] and 29.2% in data set [2].
Taken in the same sequence, the figures for `COc1ccc(CNc2ccc(C(=O)NO)c(N3CCOCC3)c2)cc1` were 45.5%, 76.9% and 91.5%.
Turning to `CCOc1ccc2ccc(=O)oc2c1` [ETHOXYCOUMARIN], the Stability entry in data set [7] (microsomes, 1 h, 10 µM) is “Unstable”; in data set [8] (microsomes, 1 h, 10 µM), “Stable”.
Consider `O=C(NO)c1cc(NCc2ccccc2Br)ccc1C1CCOCC1`, for which, in data set [5], the Activity worked out at 75.5%. Besides, the growth at 10 µM came out at 74% in data set [1] and 78.3% in data set [2].
Taken in the same sequence, the figures for `O=C(O)c1cc(NCc2ccccc2)ccc1C1CCOCC1` were 54%, 107% and 99.8%.
On the same counts, the results for `O=C(NO)c1cc(NCc2ccc(Br)cc2)ccc1C1CCOCC1` are 71.4%, 61.6% and 60.1%.
On the same counts, the results for `COC(=O)c1cc(NCc2cccc(OC)c2)ccc1C1CCOCC1` are 85.5%, 83.9% and 62.5%.
As to `COC(=O)c1ccc(NCc2ccccc2)cc1N1CCOCC1`, the Activity in data set [5] was found to be 102%. Further, the values for the growth at 10 µM in data set [1] and in data set [2] were 95.2% and 85.4%, respectively.
Regarding `O=C(NO)c1cc(NCc2ccc(Cl)cc2)ccc1C1CCOCC1`, in data set [5], the Activity was 92.5%. Also, the growth at 10 µM turned out to be 72.2% in data set [1] and 69.9% in data set [2].
In the case of `O=C(O)c1ccc(NCc2ccc(Cl)cc2)cc1N1CCOCC1`, the Activity in data set [5] is 32.4%. Further, the growth at 10 µM in data set [1] is 88.4%; in data set [2], 88.2%.
On the same counts, the results for `O=C(NO)c1ccc(NCc2ccccc2Br)cc1N1CCOCC1` are 54.7%, 30% and 54.5%.
